In ChEMBL document CHEMBL2073842, “Characterization of the efflux transport of 17beta-estradiol-D-17beta-glucuronide from the brain across the blood-brain barrier” (J Pharmacol Exp Ther, 2001) one finds Ki and Km data, which are given here for five molecules.

The target in data set [1] is T1, Organic anion transporter 3 (Rattus norvegicus, UniProt Q9R1U7).
T1 sequence (Q9R1U7 whole entry): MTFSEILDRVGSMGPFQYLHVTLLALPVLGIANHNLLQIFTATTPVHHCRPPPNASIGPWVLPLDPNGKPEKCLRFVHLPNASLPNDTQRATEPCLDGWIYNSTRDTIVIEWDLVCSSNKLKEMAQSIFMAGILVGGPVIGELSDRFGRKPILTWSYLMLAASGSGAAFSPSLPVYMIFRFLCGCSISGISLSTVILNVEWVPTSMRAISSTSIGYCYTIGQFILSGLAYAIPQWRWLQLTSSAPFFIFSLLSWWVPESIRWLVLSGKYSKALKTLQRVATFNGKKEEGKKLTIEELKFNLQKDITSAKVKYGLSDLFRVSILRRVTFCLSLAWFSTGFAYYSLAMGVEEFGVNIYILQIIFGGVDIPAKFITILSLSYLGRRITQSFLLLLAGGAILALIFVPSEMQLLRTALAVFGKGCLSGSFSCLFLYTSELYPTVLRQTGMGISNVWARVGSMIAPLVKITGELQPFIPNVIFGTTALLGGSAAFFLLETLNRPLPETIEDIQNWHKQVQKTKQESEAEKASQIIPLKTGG
Description: TP_TRANSPORTER: inhibition of E217betaG uptake in Oat3-expressing LLC-PK1 cells. Type of data set: functional, cell-based.

Data set [2] deals with T2, Solute carrier organic anion transporter family member 1A1 (Rattus norvegicus, UniProt P46720).
T2 sequence (P46720 whole entry): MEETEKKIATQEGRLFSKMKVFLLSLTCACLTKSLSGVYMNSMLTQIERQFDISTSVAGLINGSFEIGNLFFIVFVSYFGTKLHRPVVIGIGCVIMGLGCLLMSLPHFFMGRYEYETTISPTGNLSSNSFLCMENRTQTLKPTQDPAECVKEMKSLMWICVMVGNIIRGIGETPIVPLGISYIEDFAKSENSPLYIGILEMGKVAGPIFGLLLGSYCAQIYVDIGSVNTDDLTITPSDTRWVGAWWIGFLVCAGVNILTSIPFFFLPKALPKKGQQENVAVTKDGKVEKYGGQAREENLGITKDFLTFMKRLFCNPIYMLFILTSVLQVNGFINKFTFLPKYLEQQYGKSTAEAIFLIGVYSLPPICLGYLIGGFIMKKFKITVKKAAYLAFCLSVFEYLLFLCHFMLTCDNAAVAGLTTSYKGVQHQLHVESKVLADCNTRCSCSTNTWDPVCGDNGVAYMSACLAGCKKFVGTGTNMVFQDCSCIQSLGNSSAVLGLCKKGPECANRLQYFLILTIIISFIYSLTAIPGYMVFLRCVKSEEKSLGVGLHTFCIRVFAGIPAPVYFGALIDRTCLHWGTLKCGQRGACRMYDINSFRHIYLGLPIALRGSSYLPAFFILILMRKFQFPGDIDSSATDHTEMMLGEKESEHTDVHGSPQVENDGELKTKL
Description: TP_TRANSPORTER: inhibition of E217betaG uptake in Oatp1-expressing LLC-PK1 cells. Type of data set: functional, cell-based.

The target of data set [3] is T3, Solute carrier organic anion transporter family member 1A4 (Rattus norvegicus, UniProt O35913).
T3 sequence (O35913 whole entry): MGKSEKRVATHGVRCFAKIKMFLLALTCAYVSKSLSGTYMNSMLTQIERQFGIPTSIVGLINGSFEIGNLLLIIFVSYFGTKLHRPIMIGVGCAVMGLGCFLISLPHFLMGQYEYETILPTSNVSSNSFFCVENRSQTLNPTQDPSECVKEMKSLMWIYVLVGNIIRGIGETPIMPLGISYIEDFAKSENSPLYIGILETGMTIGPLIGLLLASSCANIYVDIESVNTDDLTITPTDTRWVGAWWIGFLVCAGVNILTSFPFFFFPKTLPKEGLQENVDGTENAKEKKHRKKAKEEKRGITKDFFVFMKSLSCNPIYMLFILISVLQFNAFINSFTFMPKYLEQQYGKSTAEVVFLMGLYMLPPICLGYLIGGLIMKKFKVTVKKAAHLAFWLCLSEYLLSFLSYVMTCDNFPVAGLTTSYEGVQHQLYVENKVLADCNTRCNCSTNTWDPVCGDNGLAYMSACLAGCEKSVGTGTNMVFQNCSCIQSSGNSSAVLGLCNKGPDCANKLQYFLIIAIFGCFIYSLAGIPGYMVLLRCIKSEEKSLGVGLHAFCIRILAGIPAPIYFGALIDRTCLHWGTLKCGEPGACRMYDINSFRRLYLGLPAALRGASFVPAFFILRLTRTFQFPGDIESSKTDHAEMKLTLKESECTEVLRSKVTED
The experiment in a line: TP_TRANSPORTER: inhibition of E217betaG uptake in Oatp2-expressing LLC-PK1 cells. It is filed as functional, cell-based.

Substrate in data set [4]: Nc1ccc(C(=O)NCC(=O)O)cc1
Description: cells, lysate or membranes named.

Substrate in data set [5]: C[C@]12CC[C@@H]3c4ccc(O)cc4CC[C@H]3[C@@H]1CC[C@@H]2O[C@@H]1O[C@H](C(=O)O)[C@@H](O)[C@H](O)[C@H]1O
The experiment in a line: TP_TRANSPORTER: uptake in Oatp1-expressing LLC-PK1 cells. Type of data set: functional, cell-based.

Substrate in data set [6]: C[C@]12CC[C@@H]3c4ccc(O)cc4CC[C@H]3[C@@H]1CC[C@@H]2O[C@@H]1O[C@H](C(=O)O)[C@@H](O)[C@H](O)[C@H]1O
Description: TP_TRANSPORTER: uptake in Oatp2-expressing LLC-PK1 cells. Type of data set: functional, cell-based.

`Nc1ccc(C(=O)NCC(=O)O)cc1` [AMINOHIPPURIC ACID]: in data set [1], affinity was put at a Ki of 301 µM. As to `CCCN(CCC)S(=O)(=O)c1ccc(C(=O)O)cc1` [PROBENECID], the Ki in data set [2] was 74.4 µM; in data set [3], 72.9 µM; in data set [1], 20 µM.

B1: Solute carrier family 22 member 6 (Rattus norvegicus) (protein)
chain: MAFNDLLKQVGGVGRFQLIQVTMVVAPLLLMASHNTLQNFTAAIPPHHCRPPANANLSKDGGLEAWLPLDKQGQPESCLRFTSPQWGPPFYNGTEANGTRVTEPCIDGWVYDNSTFPSTIVTEWNLVCSHRAFRQLAQSLYMVGVLLGAMVFGYLADRLGRRKVLILNYLQTAVSGTCAAYAPNYTVYCVFRLLSGMSLASIAINCMTLNVEWMPIHTRAYVGTLIGYVYSLGQFLLAGIAYAVPHWRHLQLVVSVPFFIAFIYSWFFIESARWYSSSGRLDLTLRALQRVARINGKQEEGAKLSIEVLRTSLQKELTLSKGQASAMELLRCPTLRHLFLCLSMLWFATSFAYYGLVMDLQGFGVSMYLIQVIFGAVDLPAKFVCFLVINSMGRRPAQMASLLLAGICILVNGIIPKSHTIIRTSLAVLGKGCLASSFNCIFLYTGELYPTVIRQTGLGMGSTMARVGSIVSPLVSMTAEFYPSMPLFIFGAVPVVASAVTALLPETLGQPLPDTVQDLKSRSRGKQNQQQQEQQKQMMPLQASTQEKNGL
As for B1, the Km in data set [4] came out at 85.1 µM.

B2: Solute carrier organic anion transporter family member 1A1 (Rattus norvegicus) (protein)
chain: T2 sequence (P46720 whole entry)
Take B2: in data set [5], the Km was found to be 2.58 µM.

B3: Solute carrier organic anion transporter family member 1A4 (Rattus norvegicus) (protein)
chain: T3 sequence (O35913 whole entry)
For the molecule B3, in data set [6], the Km came to 17 µM.

By Ki is commonly meant a dissociation constant, usually derived from enzyme kinetics or from competition with a known ligand. Broadly, the Km is the concentration of substrate that gives half-maximal velocity.
